The supplement of paper PMC12463676, “Small-molecule dissolution of stress granules by redox modulation benefits ALS models” (Nature Chemical Biology, 2025)

Key:
lipoamide = compound: NC(=O)CCCCC1CCSS1 [lipoamide]; assay: thermal stability z-score vs DMSO; higher = more thermally stabilized by treatment; conditions: HeLa, lipoamide concentration 100 µM
Protocol: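 Cellular thermal proteome profiling in HeLa cells. Cells were treated with 100 µM lipoamide for 1 h, with or without 1 mM arsenate for a further 1 h, then heated to ten temperatures (37-66.3 °C), and soluble protein was quantified by TMT mass spectrometry relative to 0.1% DMSO controls. The thermal stability score (sum of log2 fold changes minus the abundance score) was transformed to a z-score; mean of n = 3 experiments.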

potassium arsenate = compound: O=[As]([O-])(O)O.[K+] [potassium arsenate]; assay: as above; conditions: HeLa; arsenate concentration 1 mM
Protocol: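 Cellular thermal proteome profiling in HeLa cells treated with 1 mM arsenate for 1 h (DMSO pretreatment), heated to ten temperatures (37-66.3 °C). Soluble protein was quantified by TMT mass spectrometry relative to DMSO controls; the thermal stability score was transformed to a z-score; mean of n = 3 experiments.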

[1] = arsenate co-treatment: 1 mM arsenate 1 h
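Also: each temperature applied for 3 min, abundance score taken as mean log2 fold change at the two lowest temperatures, z-score obtained by mean subtraction and division by SD.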

UniProt P37268, sequence (P37268 whole entry): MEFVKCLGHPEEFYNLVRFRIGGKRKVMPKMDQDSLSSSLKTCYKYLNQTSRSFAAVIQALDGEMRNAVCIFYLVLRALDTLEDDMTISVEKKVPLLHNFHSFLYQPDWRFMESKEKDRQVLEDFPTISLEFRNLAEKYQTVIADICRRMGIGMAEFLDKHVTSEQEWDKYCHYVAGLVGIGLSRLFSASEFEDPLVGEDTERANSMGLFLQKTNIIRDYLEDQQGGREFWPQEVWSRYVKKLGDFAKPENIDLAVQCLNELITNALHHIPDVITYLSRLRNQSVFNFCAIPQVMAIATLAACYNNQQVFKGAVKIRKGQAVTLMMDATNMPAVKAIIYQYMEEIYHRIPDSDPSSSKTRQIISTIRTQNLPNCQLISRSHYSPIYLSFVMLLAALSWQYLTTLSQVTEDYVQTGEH
UniProt Q7L8L6, sequence (Q7L8L6 whole entry): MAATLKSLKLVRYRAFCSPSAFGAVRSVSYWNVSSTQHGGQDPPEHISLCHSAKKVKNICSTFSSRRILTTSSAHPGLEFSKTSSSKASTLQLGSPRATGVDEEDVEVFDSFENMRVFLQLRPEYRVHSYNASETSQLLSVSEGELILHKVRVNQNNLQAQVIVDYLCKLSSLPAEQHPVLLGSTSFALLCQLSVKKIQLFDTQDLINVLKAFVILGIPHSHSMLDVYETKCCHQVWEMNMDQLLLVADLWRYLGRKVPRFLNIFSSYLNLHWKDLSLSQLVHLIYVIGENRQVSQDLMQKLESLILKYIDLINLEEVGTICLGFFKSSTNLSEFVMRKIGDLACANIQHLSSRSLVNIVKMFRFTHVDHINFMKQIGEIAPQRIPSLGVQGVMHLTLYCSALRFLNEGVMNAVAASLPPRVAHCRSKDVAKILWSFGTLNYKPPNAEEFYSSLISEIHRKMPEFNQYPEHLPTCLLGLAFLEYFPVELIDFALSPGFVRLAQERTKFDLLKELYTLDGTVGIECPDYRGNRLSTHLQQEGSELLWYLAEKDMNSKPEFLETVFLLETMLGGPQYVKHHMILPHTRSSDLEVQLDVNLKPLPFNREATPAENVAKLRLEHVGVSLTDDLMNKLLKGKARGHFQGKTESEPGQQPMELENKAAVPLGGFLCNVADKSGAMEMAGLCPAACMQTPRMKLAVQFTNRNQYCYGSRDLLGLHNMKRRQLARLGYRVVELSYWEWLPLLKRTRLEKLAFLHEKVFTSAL
UniProt Q9NX38, sequence (Q9NX38 whole entry): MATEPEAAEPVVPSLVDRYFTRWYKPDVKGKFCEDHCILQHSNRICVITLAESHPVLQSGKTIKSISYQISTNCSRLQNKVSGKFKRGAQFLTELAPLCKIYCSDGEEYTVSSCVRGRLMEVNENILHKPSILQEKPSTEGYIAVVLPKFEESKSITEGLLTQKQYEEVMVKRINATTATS
UniProt Q9UKT5, sequence (Q9UKT5 whole entry): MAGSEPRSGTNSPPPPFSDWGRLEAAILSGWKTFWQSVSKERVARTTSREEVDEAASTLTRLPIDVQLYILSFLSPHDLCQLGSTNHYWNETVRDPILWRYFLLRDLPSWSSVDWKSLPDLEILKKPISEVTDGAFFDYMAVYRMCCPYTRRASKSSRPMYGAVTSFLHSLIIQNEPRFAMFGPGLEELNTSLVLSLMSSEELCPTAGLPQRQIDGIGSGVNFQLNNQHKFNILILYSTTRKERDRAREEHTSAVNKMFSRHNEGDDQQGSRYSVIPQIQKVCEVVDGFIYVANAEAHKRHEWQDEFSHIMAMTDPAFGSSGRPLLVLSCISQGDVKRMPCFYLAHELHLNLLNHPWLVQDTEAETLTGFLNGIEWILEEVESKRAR
UniProt P09038, sequence (P09038 whole entry): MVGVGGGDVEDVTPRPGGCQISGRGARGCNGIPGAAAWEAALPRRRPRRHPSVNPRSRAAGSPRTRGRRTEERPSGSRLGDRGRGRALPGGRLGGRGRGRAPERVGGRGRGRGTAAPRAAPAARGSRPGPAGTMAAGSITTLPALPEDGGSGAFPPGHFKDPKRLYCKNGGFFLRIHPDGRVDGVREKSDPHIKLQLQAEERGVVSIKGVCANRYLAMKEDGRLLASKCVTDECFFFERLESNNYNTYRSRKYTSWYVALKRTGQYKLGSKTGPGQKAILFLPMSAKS
UniProt Q9BUT9, sequence (Q9BUT9 whole entry): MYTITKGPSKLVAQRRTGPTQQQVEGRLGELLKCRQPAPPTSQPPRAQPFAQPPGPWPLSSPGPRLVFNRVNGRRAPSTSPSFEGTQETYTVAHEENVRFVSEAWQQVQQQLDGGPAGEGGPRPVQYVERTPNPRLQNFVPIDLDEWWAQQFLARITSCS
UniProt Q9NSI2, sequence (Q9NSI2 whole entry): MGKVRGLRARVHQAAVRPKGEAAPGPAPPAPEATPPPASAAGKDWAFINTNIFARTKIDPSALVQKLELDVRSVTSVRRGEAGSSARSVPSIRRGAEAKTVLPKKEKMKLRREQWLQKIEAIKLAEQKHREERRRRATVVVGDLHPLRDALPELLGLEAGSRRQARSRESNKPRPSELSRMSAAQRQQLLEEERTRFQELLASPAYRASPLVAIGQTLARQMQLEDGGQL
UniProt Q9NXK8, sequence (Q9NXK8 whole entry): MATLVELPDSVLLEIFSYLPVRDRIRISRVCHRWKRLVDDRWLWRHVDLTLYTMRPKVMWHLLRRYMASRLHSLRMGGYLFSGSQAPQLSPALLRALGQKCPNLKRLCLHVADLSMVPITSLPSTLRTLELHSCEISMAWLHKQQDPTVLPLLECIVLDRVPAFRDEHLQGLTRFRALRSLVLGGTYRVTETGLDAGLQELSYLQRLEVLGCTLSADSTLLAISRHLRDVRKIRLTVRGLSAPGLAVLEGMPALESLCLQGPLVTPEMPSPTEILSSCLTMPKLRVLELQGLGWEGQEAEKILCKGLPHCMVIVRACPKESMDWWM
UniProt O95363, sequence (O95363 whole entry): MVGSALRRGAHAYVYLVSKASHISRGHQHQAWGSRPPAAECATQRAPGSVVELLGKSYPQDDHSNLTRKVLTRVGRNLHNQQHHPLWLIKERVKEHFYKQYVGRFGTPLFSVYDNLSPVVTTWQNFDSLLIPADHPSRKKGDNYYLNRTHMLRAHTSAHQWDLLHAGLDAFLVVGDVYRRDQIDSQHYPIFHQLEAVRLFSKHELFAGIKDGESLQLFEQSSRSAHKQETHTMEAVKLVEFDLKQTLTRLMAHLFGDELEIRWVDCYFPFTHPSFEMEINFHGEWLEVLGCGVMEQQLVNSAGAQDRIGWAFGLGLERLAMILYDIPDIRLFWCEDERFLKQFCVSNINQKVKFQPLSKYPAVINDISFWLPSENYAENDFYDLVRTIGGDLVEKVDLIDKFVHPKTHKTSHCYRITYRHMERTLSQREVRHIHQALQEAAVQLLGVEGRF
UniProt Q9UKB1, sequence (Q9UKB1 whole entry): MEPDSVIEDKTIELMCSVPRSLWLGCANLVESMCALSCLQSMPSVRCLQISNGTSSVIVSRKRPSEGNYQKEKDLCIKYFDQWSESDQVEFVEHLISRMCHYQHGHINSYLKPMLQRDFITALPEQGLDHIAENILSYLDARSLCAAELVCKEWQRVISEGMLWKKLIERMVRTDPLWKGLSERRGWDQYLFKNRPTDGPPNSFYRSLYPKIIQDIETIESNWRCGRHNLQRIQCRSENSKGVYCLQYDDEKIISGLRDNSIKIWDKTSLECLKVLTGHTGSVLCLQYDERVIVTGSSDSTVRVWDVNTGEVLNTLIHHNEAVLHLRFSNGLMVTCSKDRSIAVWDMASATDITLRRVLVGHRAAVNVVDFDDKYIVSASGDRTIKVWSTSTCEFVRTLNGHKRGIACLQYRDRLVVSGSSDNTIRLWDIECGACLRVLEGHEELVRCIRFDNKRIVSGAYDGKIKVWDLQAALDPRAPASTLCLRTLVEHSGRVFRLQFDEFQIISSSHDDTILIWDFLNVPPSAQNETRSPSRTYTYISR
UniProt Q9Y613, sequence (Q9Y613 whole entry): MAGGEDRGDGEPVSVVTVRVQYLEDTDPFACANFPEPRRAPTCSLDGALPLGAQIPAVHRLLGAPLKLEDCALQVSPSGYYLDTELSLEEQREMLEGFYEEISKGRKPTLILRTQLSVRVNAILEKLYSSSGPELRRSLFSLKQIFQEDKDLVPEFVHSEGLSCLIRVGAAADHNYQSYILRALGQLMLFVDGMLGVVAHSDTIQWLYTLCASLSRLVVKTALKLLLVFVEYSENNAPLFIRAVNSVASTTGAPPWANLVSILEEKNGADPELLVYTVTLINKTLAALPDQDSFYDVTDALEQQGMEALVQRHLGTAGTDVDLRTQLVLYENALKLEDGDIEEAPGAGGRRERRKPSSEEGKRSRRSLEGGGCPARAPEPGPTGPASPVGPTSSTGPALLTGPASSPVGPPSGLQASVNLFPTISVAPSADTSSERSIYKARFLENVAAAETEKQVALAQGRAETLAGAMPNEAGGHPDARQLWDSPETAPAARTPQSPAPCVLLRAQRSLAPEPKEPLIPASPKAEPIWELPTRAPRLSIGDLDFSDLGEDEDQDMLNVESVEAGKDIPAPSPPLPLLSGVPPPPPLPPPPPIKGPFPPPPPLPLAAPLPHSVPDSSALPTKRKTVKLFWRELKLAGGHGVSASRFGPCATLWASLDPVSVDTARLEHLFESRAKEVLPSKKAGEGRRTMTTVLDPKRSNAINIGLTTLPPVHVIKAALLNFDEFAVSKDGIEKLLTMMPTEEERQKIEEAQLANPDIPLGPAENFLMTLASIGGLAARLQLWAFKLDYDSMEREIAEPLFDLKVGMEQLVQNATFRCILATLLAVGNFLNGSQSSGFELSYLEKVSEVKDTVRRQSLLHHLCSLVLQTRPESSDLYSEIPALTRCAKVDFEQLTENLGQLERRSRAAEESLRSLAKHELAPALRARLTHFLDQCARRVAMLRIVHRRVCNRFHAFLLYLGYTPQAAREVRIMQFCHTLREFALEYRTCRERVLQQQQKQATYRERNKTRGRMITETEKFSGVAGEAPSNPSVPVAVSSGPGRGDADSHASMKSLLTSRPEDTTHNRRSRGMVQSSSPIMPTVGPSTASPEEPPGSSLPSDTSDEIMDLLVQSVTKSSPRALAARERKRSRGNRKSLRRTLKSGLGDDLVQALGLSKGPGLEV

Target	thermal stability z-score (lipoamide; [1])	thermal stability z-score (lipoamide; arsenate co-treatment: none)	thermal stability z-score (potassium arsenate)
FAM192A (UniProt Q9GZU8)	-0.00729	0.455	-0.58
FAM195A (UniProt Q9BUT9)	0.00727	0.202	-0.164
FAM206A (UniProt Q9NX38)	-0.0394	-0.233	0.249
FAM207A (UniProt Q9NSI2)	0.062	0.578	0.566
FAM210A (UniProt Q96ND0)	-0.412	-0.508	-0.189
FAM213A (UniProt Q9BRX8)	-0.192	-0.476	-0.29
FAM219A (UniProt Q8IW50)	-1.69	2.4	-9.1
FAM234A (UniProt Q9H0X4)	-0.353	-0.499	-0.743
FAM234B (UniProt A2RU67)	-0.257	-0.241	-0.192
FANCA (UniProt O15360)	-0.0907	-0.00129	-0.103
FANCB (UniProt Q8NB91)	-0.147	-0.547	-1.04
FANCD2 (UniProt Q9BXW9)	-0.812	-0.0726	-0.953
FANCG (UniProt O15287)	-0.348	-0.437	-0.507
FANCI (UniProt Q9NVI1)	-0.722	-0.439	-1.2
FAR1 (UniProt Q8WVX9)	-0.177	-0.0751	0.544
FARP1 (UniProt Q9Y4F1)	-0.118	-1.38	-2.23
FARP2 (UniProt O94887)	-0.32	-0.266	-0.235
FARS2 (UniProt O95363)	-0.386	-0.359	-0.701
FARSA (UniProt Q9Y285)	-1.41	-0.546	0.0543
FARSB (UniProt Q9NSD9)	0.262	-0.0911	0.893
FAS (UniProt P25445)	0.392	0.673	0.539
FASN (UniProt P49327)	0.217	0.252	-1.1
FASTKD1 (UniProt Q53R41)	-0.195	-0.378	-0.324
FASTKD2 (UniProt Q9NYY8)	-0.22	0.158	0.445

Target	thermal stability z-score (lipoamide; [1])	thermal stability z-score (lipoamide; arsenate co-treatment: none)	thermal stability z-score (potassium arsenate)
FASTKD3 (UniProt Q14CZ7)	-0.0188	-0.107	-0.00397
FASTKD5 (UniProt Q7L8L6)	-1.07	0.633	0.437
FAT1 (UniProt Q14517)	-1.6	-1.48	0.0899
FAU (UniProt P62861)	1.7	1.21	1.15
FBL (UniProt P22087)	0.277	-0.112	0.723
FBLN1 (UniProt P23142)	-2.93	-2.25	1.29
FBN1 (UniProt P35555)	-2.81	-2.71	0.276
FBXL12 (UniProt Q9NXK8)	-0.195	0.0639	-0.29
FBXL16 (UniProt Q8N461)	-0.137	0.0698	-0.0763
FBXL17 (UniProt Q9UF56)	0.0273	-0.0196	-0.139
FBXL18 (UniProt Q96ME1)	0.241	0.119	-0.711
FBXL20 (UniProt Q96IG2)	-1.2	-1.06	-0.992
FBXO2 (UniProt Q9UK22)	-0.743	0.137	0.0529
FBXO3 (UniProt Q9UK99)	-0.185	-0.251	-1.06
FBXO4 (UniProt Q9UKT5)	-0.0696	0.534	-0.473
FBXO7 (UniProt Q9Y3I1)	-0.692	-0.573	-0.35
FBXO9 (UniProt Q9UK97)	-0.495	-1.62	-0.61
FBXO21 (UniProt O94952)	-0.226	-1.07	0.0266
FBXO22 (UniProt Q8NEZ5)	0.0761	-0.0297	-0.412
FBXO28 (UniProt Q9NVF7)	0.0993	-0.125	-0.115
FBXO30 (UniProt Q8TB52)	-0.102	-0.208	-0.959
FBXO38 (UniProt Q6PIJ6)	0.0679	-0.115	-0.981
FBXO45 (UniProt P0C2W1)	0.369	0.292	0.229
FBXW11 (UniProt Q9UKB1)	0.162	-0.0669	0.814

Target	thermal stability z-score (lipoamide; [1])	thermal stability z-score (lipoamide; arsenate co-treatment: none)	thermal stability z-score (potassium arsenate)
FCHO2 (UniProt Q0JRZ9)	-0.472	-0.218	0.405
FCHSD2 (UniProt O94868)	-0.0527	-0.175	-0.184
FDFT1 (UniProt P37268)	-0.0123	0.444	0.108
FDPS (UniProt P14324)	-0.000727	-0.16	-0.437
FDX1 (UniProt P10109)	-0.234	-0.162	-0.0279
FDXR (UniProt P22570)	-0.331	-0.428	0.404
FECH (UniProt P22830)	0.24	0.0849	-0.203
FEM1B (UniProt Q9UK73)	0.128	0.146	-1.27
FEN1 (UniProt P39748)	-0.489	0.469	0.572
FER (UniProt P16591)	0.209	0.182	0.326
FERMT1 (UniProt Q9BQL6)	0.0116	0.904	1.07
FERMT2 (UniProt Q96AC1)	0.0975	-0.153	0.203
FGD4 (UniProt Q96M96)	0.0849	-0.0145	-0.203
FGF2 (UniProt P09038)	-0.298	0.269	-1.74
FGFR1OP2 (UniProt Q9NVK5)	-0.0532	0.0859	0.0446
FGFR1OP (UniProt O95684)	0.163	-0.0584	1.33
FH (UniProt P07954)	0.0704	0.0826	-1.66
FHL1 (UniProt Q13642)	0.358	0.294	-0.17
FHL2 (UniProt Q14192)	-1.64	-0.905	-6.31
FHL3 (UniProt Q13643)	0.648	-0.254	-3.01
FHOD1 (UniProt Q9Y613)	-0.261	-0.0798	0.2
FIBP (UniProt O43427)	0.453	0.0779	0.125
FIGNL1 (UniProt Q6PIW4)	-0.113	-0.0699	-1
